US20220249665A1, “TRANSFECTION METHOD” (Takeda Pharmaceutical Company Limited, priority 2019, published 2022)

System: C2C12 cells
Assay: Introduction of low-molecular-weight compound (FITC) into skeletal muscle cell
Format: cell-based
Procedure: C2C12 cells (3×10^4 cells, 0.5 mL) in 10% FBS-containing DMEM medium were seeded in 48 wells. After removing the medium, 0.5 ml of ultrafine bubble/DMEM medium containing 0.38 μg of FITC was added. An ultrafine bubble/DMEM medium prepared by adding 1 L of the ultrafine bubble aqueous solution prepared in Reference Example 1 to a DMEM medium powder, and adding 2 g/L NaHCO3 and 10% FBS was used as a transfection medium.
After adding the FITC-containing medium, ultrasound exposure was performed for 10 sec at a frequency of 1 MHz and output intensities of 100, 250, 500 mW/cm^2 and using an ultrasound generator (NEPAGENE). After ultrasound exposure, the cells were cultured for 2 hr, then the transfection medium was removed, and the cells were cultured in DMEM medium (culture medium) for 48 hr.
After completion of the culture, the cells were collected, completely lysed with 0.5 mL of cell lysis solution, and the fluorescent intensity of FITC was measured with a spectrofluoro-photometer. The amount of FITC uptake was evaluated as a relative amount by proportional calculation with the measured value of Control (ultrafine bubbles alone) as 1.

O=C1OC2(c3ccc(O)cc3Oc3cc(O)ccc32)c2ccc(N=C=S)cc21 [FITC]
introduction efficiency of FITC into the cell (ultrafine bubbles (negatively-charged, C3F8) combined with ultrasound 1 MHz, 10 sec, C2C12, 0.38 μg FITC): remarkably increased
introduction efficiency of FITC (ultrafine bubbles + ultrasound 100 mW/cm^2): increasing tendency was observed
introduction efficiency of FITC (ultrafine bubbles + ultrasound 250 mW/cm^2): particularly superior introduction efficiency
introduction efficiency of FITC (ultrafine bubbles + ultrasound 250 or 500 mW/cm^2): increased significantly
